The target in one assay is T1, rat 5-HT7a receptor (Rattus norvegicus, UniProt P32305).
T1 construct: expressed in transfected cells; host or cells: HEK-293
Nature of the assay: Affinity for 5-HT7 receptor binding sites (competition radioligand binding, [3H]5-CT). Conditions: membranes of HEK-293 cells with rat 5-HT7a; 1 nM [3H]5-CT; * = tested as hydrochloride salt. The method, boiled down:
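Membranes from HEK-293 cells stably expressing rat 5-HT7a receptor, in 50 mM Tris-HCl pH 7.5 with 5 mM EDTA, incubated 60 min at RT with 1 nM [3H]5-CT and increasing compound; nonspecific binding defined with 10 μM 5-HT. Bound radioactivity read after rapid filtration; inhibition curves fitted by nonlinear regression; triplicate.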

Assay [1] deals with T2, human recombinant 5-HT2A receptor (Homo sapiens, UniProt P28223).
T2 construct: expressed in transfected cells; host or cells: NIH3T3
The experiment in a line: Affinity for 5-HT2A receptor binding sites (competitive radioligand binding, [3H]ketanserin). Particulars: membranes of NIH3T3 with h5-HT2A, * = tested as hydrochloride salt. The method, boiled down: (§1)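 Membranes from NIH3T3 cells stably expressing h5-HT2A or CHO cells stably expressing h5-HT2B/h5-HT2C; [3H]ketanserin used for 5-HT2A, [3H]mesulergine for 5-HT2B/2C. Compounds from 10 mM DMSO stocks, final DMSO ≤0.4%. Affinity from sigmoidal inhibition curves fitted by nonlinear regression.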

Assay [2] addresses T3, human recombinant 5-HT2B receptor (Homo sapiens, UniProt P41595).
T3 construct: expressed in transfected cells; host or cells: CHO
The experiment in a line: Affinity for 5-HT2B receptor binding sites (competitive radioligand binding, [3H]mesulergine). Conditions: membranes of CHO with h5-HT2B, * = tested as hydrochloride salt. The method, boiled down: as §1

The target in assay [3] is T4, human recombinant 5-HT2C receptor (Homo sapiens, UniProt P28335).
T4 construct: expressed in transfected cells; host or cells: CHO
T4 sequence (P28335 33-458): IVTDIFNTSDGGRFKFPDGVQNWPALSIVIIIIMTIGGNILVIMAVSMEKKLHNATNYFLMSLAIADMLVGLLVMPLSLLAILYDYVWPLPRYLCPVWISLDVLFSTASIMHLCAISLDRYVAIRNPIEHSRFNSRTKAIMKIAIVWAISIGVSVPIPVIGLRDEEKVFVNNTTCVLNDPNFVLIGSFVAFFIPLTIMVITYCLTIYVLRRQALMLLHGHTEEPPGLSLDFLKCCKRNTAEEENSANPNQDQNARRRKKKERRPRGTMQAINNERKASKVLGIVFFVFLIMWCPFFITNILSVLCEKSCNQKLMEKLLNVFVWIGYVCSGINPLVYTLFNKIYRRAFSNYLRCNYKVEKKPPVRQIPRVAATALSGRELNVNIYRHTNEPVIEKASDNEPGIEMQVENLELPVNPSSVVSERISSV
The experiment in a line: Affinity for 5-HT2C receptor binding sites (competitive radioligand binding, [3H]mesulergine). Particulars: membranes of CHO with h5-HT2C, * = tested as hydrochloride salt. Put shortly: as §1

Assay [4] deals with T5, human recombinant 5-HT6 receptor (Homo sapiens, UniProt P50406).
T5 construct: expressed in transfected cells; host or cells: HEK-293
The experiment in a line: Affinity for 5-HT6 receptor binding sites (competitive radioligand binding, [3H]LSD). Particulars: membranes of HEK-293 with h5-HT6, * = tested as hydrochloride salt. Put shortly:
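Membranes from HEK-293 cells stably expressing human 5-HT6, competition against [3H]LSD; nonspecific binding defined with 1 μM clozapine. DMSO ≤0.4% final. Inhibition curves fitted by nonlinear regression.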

The structures appear in SMILES notation.

T5 sequence (P50406 whole entry): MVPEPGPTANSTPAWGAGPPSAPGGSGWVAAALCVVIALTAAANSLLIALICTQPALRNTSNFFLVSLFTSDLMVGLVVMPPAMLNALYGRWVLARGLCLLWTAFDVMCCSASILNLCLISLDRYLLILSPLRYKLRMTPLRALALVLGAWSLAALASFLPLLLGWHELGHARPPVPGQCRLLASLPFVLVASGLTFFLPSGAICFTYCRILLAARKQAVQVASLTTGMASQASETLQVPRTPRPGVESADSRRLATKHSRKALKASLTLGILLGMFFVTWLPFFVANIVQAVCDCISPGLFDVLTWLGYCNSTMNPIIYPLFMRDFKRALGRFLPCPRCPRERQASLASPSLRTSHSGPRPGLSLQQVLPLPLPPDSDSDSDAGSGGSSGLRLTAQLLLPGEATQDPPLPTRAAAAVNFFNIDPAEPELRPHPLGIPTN
T3 sequence (P41595 whole entry): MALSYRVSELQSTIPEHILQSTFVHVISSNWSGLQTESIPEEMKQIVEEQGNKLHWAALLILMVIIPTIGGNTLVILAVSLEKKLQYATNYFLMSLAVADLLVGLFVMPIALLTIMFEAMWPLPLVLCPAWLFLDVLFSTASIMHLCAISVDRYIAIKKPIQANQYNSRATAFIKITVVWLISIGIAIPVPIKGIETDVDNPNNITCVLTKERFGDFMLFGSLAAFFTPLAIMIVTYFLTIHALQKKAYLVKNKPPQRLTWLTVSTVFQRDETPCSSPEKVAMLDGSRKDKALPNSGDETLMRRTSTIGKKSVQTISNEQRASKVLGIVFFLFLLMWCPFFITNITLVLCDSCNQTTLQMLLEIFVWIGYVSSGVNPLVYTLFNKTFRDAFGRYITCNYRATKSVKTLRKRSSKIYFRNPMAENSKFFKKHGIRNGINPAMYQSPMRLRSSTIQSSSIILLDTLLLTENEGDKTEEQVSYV
T1 sequence (P32305 whole entry): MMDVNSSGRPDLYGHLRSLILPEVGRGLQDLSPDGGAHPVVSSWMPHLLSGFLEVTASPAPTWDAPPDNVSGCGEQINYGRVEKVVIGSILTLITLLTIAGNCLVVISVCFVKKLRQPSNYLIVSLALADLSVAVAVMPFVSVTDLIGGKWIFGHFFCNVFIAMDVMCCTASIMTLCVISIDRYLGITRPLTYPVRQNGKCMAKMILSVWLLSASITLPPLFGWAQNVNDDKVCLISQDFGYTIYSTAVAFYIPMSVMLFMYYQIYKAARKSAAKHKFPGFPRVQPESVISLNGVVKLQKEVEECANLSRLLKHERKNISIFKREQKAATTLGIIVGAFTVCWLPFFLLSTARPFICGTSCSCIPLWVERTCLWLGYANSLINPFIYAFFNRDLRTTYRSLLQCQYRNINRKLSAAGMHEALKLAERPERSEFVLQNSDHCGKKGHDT
T2 sequence (P28223 whole entry): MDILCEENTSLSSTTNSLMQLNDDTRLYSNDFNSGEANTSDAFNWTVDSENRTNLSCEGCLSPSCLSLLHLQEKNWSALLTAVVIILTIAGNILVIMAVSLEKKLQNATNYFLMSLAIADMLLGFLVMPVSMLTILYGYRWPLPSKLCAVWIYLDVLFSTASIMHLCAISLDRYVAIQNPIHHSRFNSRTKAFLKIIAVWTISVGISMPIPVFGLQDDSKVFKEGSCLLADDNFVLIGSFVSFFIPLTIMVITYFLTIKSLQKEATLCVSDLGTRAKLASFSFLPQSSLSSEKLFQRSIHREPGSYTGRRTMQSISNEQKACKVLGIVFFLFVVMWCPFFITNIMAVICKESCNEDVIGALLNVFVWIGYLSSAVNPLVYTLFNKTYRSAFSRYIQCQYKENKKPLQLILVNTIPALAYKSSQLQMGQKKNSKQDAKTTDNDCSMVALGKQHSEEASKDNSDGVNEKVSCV

The Ki is a measure of affinity in units of concentration, obtained from inhibition or displacement. In the case of `Cc1ccc(-c2nc(N3CCCC3)nc3c2CN(C)CC3)cc1` [Example 52, 6-Methyl-2-pyrrolidin-1-yl-4-p-tolyl-5,6,7,8-tetrahydro-pyrido[4,3-d]pyrimidine], the Ki is above 10000 nM on rat 5-HT7a receptor; 120 nM in assay [1]; 500 nM in assay [2]; 500 nM in assay [3]; 977 nM in assay [4].
Turning to `CCN(CC)c1nc2c(c(-c3ccc(Cl)cc3)n1)CCNCC2` [Example 60, [4-(4-Chloro-phenyl)-6,7,8,9-tetrahydro-5H-pyrimido[4,5-d]azepin-2-yl]-diethyl-amine], the Ki on rat 5-HT7a receptor is 41 nM; in assay [1] it was 20 nM; in assay [2], 10 nM; in assay [3], 100 nM; in assay [4], above 10000 nM.
With `Cc1ccc(-c2nc(N(C)C)nc3c2CNCC3)cc1` [Example 61, Dimethyl-(4-p-tolyl-5,6,7,8-tetrahydro-pyrido[4,3-d]pyrimidin-2-yl)-amine], the inhibition constant Ki at rat 5-HT7a receptor worked out at 9000 nM; in assay [1] it was 420 nM; in assay [2] it was 620 nM; in assay [3], 5000 nM; in assay [4], 2290 nM.

The values are drawn from US8829011B2 (Janssen Pharmaceutica NV, priority 2008, dated 2014).
